The target in test [1] is T1, PARG (Homo sapiens, UniProt Q86W56).
T1 construct: made in house
The test can be described thus: Enzymatic inhibitory activity against PARG, HTRF assay. As to conditions: HTRF; PARylated PARP1 protein as substrate; 60 minutes at room temperature; read-out: IC50 against PARG enzyme. It is filed as biochemical. The method, then:
In this experiment, the enzymatic inhibitory activity of the compounds of the present disclosure against PARG was determined using an HTRF (homogeneous time-resolved fluorescence) assay.
HTRF assay reagents were purchased from PerkinElmer (Cat. Nos. 61HISTLB and 610SAXLB). The purified protein was prepared in-house.
PARG enzyme reaction buffer: 50 mM Tris (pH 7.4), 0.1 mg/mL BSA, 3 mM EDTA, 0.4 mM EGTA, 1 mM DTT, 50 mM KCl, and 0.01% Tween 20.
• 1) Using an ultra-micro pipette, the compounds of the present disclosure were serially diluted (starting at 10 µM with 3- to 5-fold serial dilutions) and added to a 384-well reaction plate, with each concentration tested in duplicate wells. Control group 1 was added with 10 µM control compound (100% inhibition group). Control group 2 was added with DMSO (0% inhibition group). After compound addition, the 384-well plate was centrifuged at 1000 rpm for 1 minute. • 2) 2.5 µL of PARG protein was added to each well and incubated with the compounds of the present disclosure at room temperature for 15 minutes, followed by centrifugation at 1000 rpm for 1 minute. • 3) 2.5 µL of PARylated PARP1 protein was added to each well and incubated at room temperature for 60 minutes, followed by centrifugation at 1000 rpm for 1 minute. • 4) 5 µL of His-Tb & SA-XL665 HTRF assay reagents were added to each well and incubated at room temperature for 60 minutes, followed by centrifugation at 1000 rpm for 1 minute. • 5) […] were measured using a PHERAstar FSX microplate reader from BMG. • 6) Data analysis was performed using GraphPad Prism 8. The IC50 values of the compounds of the present disclosure were calculated as follows. […] The average value of duplicate wells in control group 2 (0% inhibition group) was set as the relative inhibition rate of 0%. The HTRF signal values were converted into relative inhibition rates. The IC50 values of the compounds were calculated by fitting the data to a four-parameter logistic model. Table 15: Enzymatic inhibitory activity of the compounds of the present disclosure against PARG

Test [2] relates to KURAMOCHI cells. Kind of test: Inhibition of proliferation of KURAMOCHI cells (CellTiter-Glo, intracellular ATP). Type of test: cell-based. As to conditions: 168 h, incubated for 7 days, read-out: IC50 against KURAMOCHI cells. The method, then:
In this experiment, the inhibitory effect of the compounds of the present disclosure on the proliferation of the cancer cell line KURAMOCHI was evaluated by measuring intracellular ATP levels using a bioluminescent assay, and the half maximal inhibitory concentration (IC50) was determined.
RPMI 1640 medium (Cat. No. 11875-093), fetal bovine serum (10099-141), and 100× Pen/Strep (15070-063) were purchased from GIBCO. CellTiter-Glo Luminescent Cell Viability Assay reagent (Cat. No. G7573) was purchased from Promega.
• 1) Day 1: KURAMOCHI cells were counted using a cell counter and seeded into a 96-well culture plate at a density of 4000 cells per well in 100 µL medium. The plate was incubated overnight in an incubator (37°C, 5% CO2). • 2) Day 2: Using a D300e digital dispenser (TECAN), 500 nL of serially diluted test compounds of the present disclosure (starting at 10 µM, a total of 9 concentrations, 1:4 dilution) were added to the cells in the culture plate. The final concentration of DMSO was 0.5%. The cell culture plate was incubated for 7 days in a cell culture incubator (37°C, 5% CO2). Control group 1 received only medium and DMSO (100% inhibition group). Control group 2 received only DMSO (0% inhibition group). The final concentration of DMSO in both groups was 0.5%. • 3) Day 9: 100 µL of CellTiter-Glo reagent was added to each well. The plate was shaken at 500 rpm for 2 minutes, centrifuged at 1000 rpm for 1 minute, and then incubated at room temperature in the dark for 10 minutes to stabilize the luminescence signal. • 4) Luminescence signals were measured using an EnVision microplate reader (PerkinElmer). • 5) Data analysis was performed using GraphPad Prism 8. The IC50 values of the compounds of the present disclosure were calculated as follows. The CTG signal values were analyzed. The average inhibition rate of control group 1 (100% inhibition group) was set as the relative inhibition rate of 100%. The average inhibition rate of control group 2 (0% inhibition group) was set as the relative inhibition rate of 0%. The CTG signal values were converted into relative inhibition rates. The inhibition percentage (inhibition%) for each concentration of the compounds of the present disclosure was calculated according to the following formula: Inhibition% = (b−x)/(b−a)*100%; [formula] • a = CTG value (highest concentration), b = CTG value (blank well), x = CTG value (test well). • IC50 was calculated using GraphPad Prism 8. • (1) The concentration and inhibition rate corresponding to each well were recorded. Statistical calculation was performed using Log10 (compound concentration). • (2) The data were input into GraphPad Prism 8 and Analysis was selected. • (3) Nonlinear regression (curve fit) was selected. • (4) Log (inhibitor) vs. response - Variable slope was selected. • (5) The calculation formula was selected, and the calculation was performed according to the following formula: Y = Bottom + (Top - Bottom) / (1 + 10 ^ ((LogIC50 - X) * HillSlope)); X: log of dose or concentration; Y: response; Top and Bottom: maximum and minimum response. • (6) The IC50 values were calculated by fitting the data. Table 16: Inhibitory effect of the compounds of the present disclosure on the proliferation of KURAMOCHI cells
Background: Cellular ATP, detected with luciferase, serves as a proxy for viable cell number.

The structures appear in SMILES notation. pIC50: −log10 of the molar value.

T1 sequence (Q86W56 whole entry): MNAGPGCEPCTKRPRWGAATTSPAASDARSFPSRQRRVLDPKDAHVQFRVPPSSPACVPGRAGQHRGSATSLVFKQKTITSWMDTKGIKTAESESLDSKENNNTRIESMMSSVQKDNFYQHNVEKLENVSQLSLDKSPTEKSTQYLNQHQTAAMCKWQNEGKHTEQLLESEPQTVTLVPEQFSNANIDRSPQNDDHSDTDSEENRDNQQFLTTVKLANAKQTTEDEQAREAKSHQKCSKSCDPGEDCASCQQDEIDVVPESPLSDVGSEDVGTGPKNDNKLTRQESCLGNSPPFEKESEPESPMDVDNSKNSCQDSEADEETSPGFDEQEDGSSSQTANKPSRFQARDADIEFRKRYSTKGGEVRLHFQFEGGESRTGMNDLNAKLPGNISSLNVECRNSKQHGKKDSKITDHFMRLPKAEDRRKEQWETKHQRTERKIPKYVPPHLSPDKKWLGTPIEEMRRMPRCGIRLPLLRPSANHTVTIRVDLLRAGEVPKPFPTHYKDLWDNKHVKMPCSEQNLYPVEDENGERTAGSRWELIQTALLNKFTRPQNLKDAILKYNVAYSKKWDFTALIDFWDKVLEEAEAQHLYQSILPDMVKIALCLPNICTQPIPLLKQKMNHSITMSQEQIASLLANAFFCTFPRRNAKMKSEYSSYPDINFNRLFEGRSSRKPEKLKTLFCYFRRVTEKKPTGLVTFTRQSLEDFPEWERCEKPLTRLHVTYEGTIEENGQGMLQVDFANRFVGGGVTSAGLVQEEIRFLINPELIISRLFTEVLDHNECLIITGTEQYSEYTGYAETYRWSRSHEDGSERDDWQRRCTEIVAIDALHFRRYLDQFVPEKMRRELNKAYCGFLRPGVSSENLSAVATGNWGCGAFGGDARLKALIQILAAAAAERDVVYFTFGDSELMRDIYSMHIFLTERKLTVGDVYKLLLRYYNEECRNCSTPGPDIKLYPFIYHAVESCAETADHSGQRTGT

Broadly, the pIC50 is −log10 of the IC50, conventionally taken in molar units. In the case of `C=CCn1c(=O)n(-c2nnc(C(F)F)s2)c2cc(S(=O)(=O)NC3(C#N)CC3)cc(N3CCN(S(=O)(=O)C4CC4)CC3)c21` [Compound 067R], the pIC50 in test [1] is 8.47; in test [2], 8.22.

With `C=CCn1c(=O)n(-c2nnc(C(F)F)s2)c2cc(S(=O)(=O)NC3(C#N)CC3)cc(N3CCN(C(=O)C4CC4)CC3)c21` [Compound 067S], the pIC50 in test [1] is 7.88; in test [2] it was 7.85.

As to `C=CCn1c(=O)n(-c2nnc(C(F)F)s2)c2cc(S(=O)(=O)NC3(C#N)CC3)cc(N3CCN(C(=O)C(C)(C)C)CC3)c21` [Compound 067T], the negative-log IC50 (pIC50) in test [1] was 7.80; in test [2] it was 7.96.

In the case of `C=CCn1c(=O)n(-c2nnc(C(F)F)s2)c2cc(S(=O)(=O)NC3(C#N)CC3)cc(N3CCN(C(=O)C4CCC4)CC3)c21` [Compound 067U], the pIC50 is 7.70 in test [1] and 7.68 in test [2].

With `C=CCn1c(=O)n(-c2nnc(C(F)F)s2)c2cc(S(=O)(=O)NC3(C#N)CC3)cc(N3CCN(C(=O)C4COC4)CC3)c21` [Compound 067V], the negative logarithm of the IC50 (pIC50) in test [1] is 7.87; in test [2], 7.08.

`C=CCn1c(=O)n(-c2nnc(C(F)F)s2)c2cc(S(=O)(=O)NC3(C#N)CC3)cc(N3CCN(C(=O)[C@@H](C)CC)CC3)c21` [Compound 067W2]: the pIC50 in test [1] is 7.88; in test [2] it was 7.96.

`C=CCn1c(=O)n(-c2nnc(C(F)F)s2)c2cc(S(=O)(=O)NC3(C#N)CC3)cc(N3CCN(C(=O)[C@H](C)CC)CC3)c21` [Compound 067Wl]: the pIC50 was 7.71 in test [1] and 7.64 in test [2].

For the molecule `C=CCn1c(=O)n(-c2nnc(C(F)F)s2)c2cc(S(=O)(=O)NC3(C#N)CC3)cc(N3CCN(C(=O)C4CCCC4)CC3)c21` [Compound 067X], the pIC50 is 7.68 in test [1] and 7.64 in test [2].

In the case of `C=CCn1c(=O)n(-c2nnc(C(F)F)s2)c2cc(S(=O)(=O)NC3(C#N)CC3)cc(N3CCN(C(=O)C4(C)CC4)CC3)c21` [Compound 067Y], the pIC50 in test [1] was 7.67; in test [2], 7.47.

Take `C=CCn1c(=O)n(-c2nnc(C(F)F)s2)c2cc(S(=O)(=O)NC3(CF)CC3)cc(N3CCN(C(=O)C(C)C)CC3)c21` [Compound 068A]: the pIC50 was 8.46 in test [1] and 8.40 in test [2].

In the case of `C=CCn1c(=O)n(-c2nnc(C(F)F)s2)c2cc(S(=O)(=O)NC3(C)COC3)cc(N3CCN(C(=O)C(C)C)CC3)c21` [Compound 068B], the pIC50 was 7.80 in test [1] and 7.77 in test [2].

Regarding `C=CCn1c(=O)n(-c2nnc(C(F)(F)F)s2)c2cc(S(=O)(=O)NC3(C#N)CC3)cc(N3CCN(C(=O)C(C)C)CC3)c21` [Compound 070A], the pIC50 in test [1] was 7.82; in test [2] it was 7.74.

Turning to `C=CCn1c(=O)n(-c2nnc(C(F)(F)F)s2)c2cc(S(=O)(=O)NC3(C#N)CC3)cc(N3CCN(C(=O)C(C)(C)O)CC3)c21` [Compound 070B], the results for the pIC50 in test [1] and in test [2] were 7.69 and 7.60, respectively.

Turning to `C=CCn1c(=O)n(-c2nnc(C(F)F)s2)c2cc(S(=O)(=O)NC3(C#N)CC3)cc(N3CCN(C(=O)C(C)(C)O)[C@H](C)C3)c21` [Compound 071C2], the pIC50 in test [1] is 8.05; in test [2] it was 7.30.

As to `C=CCn1c(=O)n(-c2nnc(C(F)F)s2)c2cc(S(=O)(=O)NC3(C#N)CC3)cc(N3CCN(C(=O)C4CCOC4)CC3)c21` (centres unmarked) [Compound 072B], the pIC50 was 7.80 in test [1] and 7.28 in test [2].

For the molecule `C=CCn1c(=O)n(-c2nnc(C(F)F)s2)c2cc(S(=O)(=O)NC3(C#N)CC3)cc(N3CCN(C(=O)C(C)(O)C(F)(F)F)CC3)c21` (centres unmarked) [Compound 073A], the pIC50 is 7.51 in test [1] and 7.47 in test [2].

As to `C=CCn1c(=O)n(-c2nnc(C(F)F)s2)c2cc(S(=O)(=O)NC3(C#N)CC3)cc(N3CCN(C(=O)C4(O)CCC4)CC3)c21` [Compound 073B], the negative-log IC50 (pIC50) in test [1] is 8.35; in test [2] it was 7.66.

For `C=CCn1c(=O)n(-c2nnc(C(F)F)s2)c2cc(S(=O)(=O)NC3(C#N)CC3)cc(N3CCN([S+]([O-])C(C)(C)C)CC3)c21` (centres unmarked) [Compound 074A-11], the pIC50 was 8.55 in test [1] and 8.40 in test [2].

Consider `C=CCn1c(=O)n(-c2nnc(C(F)F)s2)c2cc(S(=O)(=O)NC3(C#N)CC3)cc(N3CCN(S(=O)(=O)C(C)(C)C)CC3)c21` [Compound 074A], for which the pIC50 in test [1] was 9.10; in test [2], 9.00.

On to `C=CCn1c(=O)n(-c2nnc(C(F)F)s2)c2cc(S(=O)(=O)NC3(C#N)CC3)cc(N3CCN(S(=O)(=O)C4(C)CC4)CC3)c21` [Compound 074B], for which the results for the pIC50 in test [1] and in test [2] were 8.57 and 8.52, respectively.

As for `C=CCn1c(=O)n(-c2nnc(C(F)F)s2)c2cc(S(=O)(=O)NC3(C#N)CC3)cc(N3CCN(S(=O)(=O)C4CCOC4)CC3)c21` (centres unmarked) [Compound 074C], the pIC50 is 8.54 in test [1] and 7.89 in test [2].

For the molecule `C=CCn1c(=O)n(-c2nnc(C(F)F)s2)c2cc(S(=O)(=O)NC3(C#N)CC3)cc(N3CCN(S(=N)(=O)C(C)C)CC3)c21` (centres unmarked) [Compound 074G], the results for the negative-log IC50 (pIC50) in test [1] and in test [2] were 8.48 and 7.40, respectively.

Consider `C=CCn1c(=O)n(-c2nnc(C(F)F)s2)c2cc(S(=O)(=O)NC3(C#N)CC3)cc(N3CCN(S(=O)(=O)N(C)C)CC3)c21` [Compound 074H], for which the pIC50 was 8.12 in test [1] and 7.92 in test [2].

In the case of `C#CCn1c(=O)n(-c2nnc(C(F)F)s2)c2cc(S(=O)(=O)NC3(C#N)CC3)cc(N3CCN(C(=O)C(C)C)CC3)c21` [Compound 074K], the pIC50 was 8.72 in test [1] and 8.10 in test [2].

On to `C=CCn1c(=O)n(-c2nnc(C(F)F)s2)c2cc(S(=O)(=O)NC3(C#N)CC3)cc(N3CCN([S+]([O-])C(C)C)CC3)c21` (centres unmarked) [Compound 074M], for which the negative logarithm of the IC50 (pIC50) is 8.21 in test [1] and 7.80 in test [2].

In the case of `C=CCn1c(=O)n(-c2nnc(C(F)F)s2)c2cc(S(=O)(=O)NC3(C#N)CC3)cc(N3CCN(C(=O)C4CCCN4C(=O)OC)CC3)c21` (centres unmarked) [Compound 076E], the pIC50 in test [1] is 8.31; in test [2], 7.46.

Take `C=CCn1c(=O)n(-c2nnc(C(F)F)s2)c2cc(S(=O)(=O)NC3(C#N)CC3)cc(N3CCN(C(=O)[C@@H]4CCCO4)CC3)c21` [Compound 076H1]: the pIC50 in test [1] is 7.84; in test [2], 7.47.

Take `C=CCn1c(=O)n(-c2nnc(C(F)F)s2)c2cc(S(=O)(=O)NC3(C#N)CC3)cc(N3CCN(C(=O)[C@H]4CCCO4)CC3)c21` [Compound 076H2]: the pIC50 in test [1] was 7.85; in test [2], 7.40.
